Test results published in patent publication US6297274A, “Nonpeptide endothelin antagonists with increased water solubility” (priority 1998, dated 2001).
Counter-ions that a name gives are not always drawn. Like-named read-outs stand apart in the source and are kept apart here.

Columns and labels:
[1] = biological target: T1, recombinant human ETB R (Homo sapiens, UniProt P24530); assay: biochemical; format: binding; conditions: read-out: HERBA-B IC50
T1 sequence (P24530 27-442): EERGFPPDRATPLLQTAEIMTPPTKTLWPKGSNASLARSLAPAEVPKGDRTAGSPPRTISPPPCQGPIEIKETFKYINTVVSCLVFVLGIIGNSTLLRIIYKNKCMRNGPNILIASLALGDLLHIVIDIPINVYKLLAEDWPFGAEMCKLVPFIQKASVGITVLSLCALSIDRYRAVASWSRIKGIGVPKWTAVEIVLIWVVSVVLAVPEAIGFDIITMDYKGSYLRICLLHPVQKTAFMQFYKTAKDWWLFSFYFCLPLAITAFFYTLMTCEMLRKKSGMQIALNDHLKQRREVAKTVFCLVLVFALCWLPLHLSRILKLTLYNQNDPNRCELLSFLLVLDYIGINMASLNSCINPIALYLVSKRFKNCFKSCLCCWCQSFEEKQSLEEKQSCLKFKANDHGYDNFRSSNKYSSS
Experimental: (§1) The following cultured cells were used in binding experiments: CHO-K1 cells expressing recombinant human ETB R (HERBA B), or Ltk-cells expressing human ETA R (HERBA A). […] Membranes were prepared from cultured cells by lysing cells in cold lysis buffer (5 mM HEPES, 2 mM EDTA, pH 7.4) and homogenizing with a Dounce "A" homogenizer. […] Radioligand and competing ligands were prepared in binding buffer containing 20 mM Tris, 2 mM EDTA, and 0.1% BSA.
(§2) The assay was terminated by filtration over Whatman GF/B filters that were presoaked with 50 mM Tris, pH 7.4, containing 0.2% BSA and 100 μM bacitracin. […] binding was defined as total binding minus nonspecific binding.

[2] = biological target: T2, human ETA R (Homo sapiens, UniProt P25101); assay: biochemical; format: binding; conditions: read-out: HERBA-A IC50
T2 sequence (P25101 21-427): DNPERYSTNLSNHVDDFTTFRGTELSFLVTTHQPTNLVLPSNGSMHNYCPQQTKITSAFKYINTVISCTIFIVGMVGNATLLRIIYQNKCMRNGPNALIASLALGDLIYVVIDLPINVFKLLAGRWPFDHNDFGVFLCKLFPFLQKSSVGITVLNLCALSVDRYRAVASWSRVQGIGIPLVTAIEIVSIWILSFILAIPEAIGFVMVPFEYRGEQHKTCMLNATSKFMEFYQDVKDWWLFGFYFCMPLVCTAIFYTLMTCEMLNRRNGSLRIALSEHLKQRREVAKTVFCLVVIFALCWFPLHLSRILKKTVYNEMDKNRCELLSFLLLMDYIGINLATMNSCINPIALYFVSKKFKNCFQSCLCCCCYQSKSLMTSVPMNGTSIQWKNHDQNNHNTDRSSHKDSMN
Experimental: as §1, §2

[3] = biological target: T3, ET-1 stimulated vasoconstriction, rabbit femoral artery (Oryctolagus cuniculus, UniProt A5A8K3); conditions: read-out: VERA-A pA2 (converted)
T3 sequence (A5A8K3 21-427): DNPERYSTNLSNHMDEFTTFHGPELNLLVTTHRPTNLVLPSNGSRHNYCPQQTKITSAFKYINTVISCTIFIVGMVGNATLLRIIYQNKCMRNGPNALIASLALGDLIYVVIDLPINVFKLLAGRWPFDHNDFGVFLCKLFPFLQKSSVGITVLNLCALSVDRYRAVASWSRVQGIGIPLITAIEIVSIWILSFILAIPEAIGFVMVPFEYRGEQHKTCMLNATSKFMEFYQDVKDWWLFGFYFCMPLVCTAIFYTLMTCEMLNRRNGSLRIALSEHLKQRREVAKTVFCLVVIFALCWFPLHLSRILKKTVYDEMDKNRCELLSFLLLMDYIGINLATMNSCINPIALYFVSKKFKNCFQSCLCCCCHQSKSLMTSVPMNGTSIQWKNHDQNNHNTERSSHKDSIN
Source text: In vitro and in vivo studies with a series of hexapeptide endothelin antagonists. J. Cardiovasc. […] The data are presented as pA2 values.

[4] = physchem; conditions: water
[5] = test system: cerebral hemisphere of cats following middle cerebral artery occlusion; conditions: IV; cited from earlier work
[6] = test system: rat hypoxia model of hypertension; conditions: cited from earlier work
[7] = test system: ischemic brain injury in rats; conditions: oral; cited from earlier work
[8] = human cloned receptor ETB, [125I]-ET-1 (40 pM), 2 hours, 37 °C
[9] = human cloned receptor ETA, [125I]-ET-1 (40 pM), 2 hours, 37 °C

With `COc1ccc(C2(O)OC(=O)C(c3ccc4c(c3)OCO4)=C2Cc2cc(OC)c(OC)c(OCC(=O)NCCN3CCOCC3)c2)cc1` (stereo not shown) [Example 3, 2-{5-[4-Benzo[1,3]dioxol-5-yl-2-hydroxy-2-(4-methoxy-phenyl)-5-oxo-2,5-dihydro-furan-3-ylmethyl]-2,3-dimethoxy-phenoxy}-N-(2-morpholin-4-yl-ethyl)-acetamide] as the compound, how does the IC50 [1, 8] read?
Its IC50 is > 2500 nM.

What about the IC50 [2, 9] of the same compound?
The IC50 was 2 nM.

Which results are given for `COc1ccc(C2(O)OC(=O)C(c3ccc4c(c3)OCO4)=C2Cc2cc(OC)c(OC)c(OCC(=O)NCCN3CCOCC3)c2)cc1` (stereo not shown) [Example 4]?
Kb [3]: 100 nM; IC50 [2, 9]: 1 nM

For `COc1ccc(C2(O)OC(=O)C(c3ccc4c(c3)OCO4)=C2Cc2cc(OC)c(OCCN3CCOCC3)c(OCCN3CCOCC3)c2)cc1` (stereo not shown) [Example 9, 3-Benzo[1,3]dioxol-5-yl-5-hydroxy-4-[3-methoxy-4,5-bis-(2-morpholin-4-yl-ethoxy)-benzyl]-5(4-methoxy-phenyl)-5H-furan-2-one 2-hydroxyethanesulfonate], which IC50 [1, 8] is on record?
Its IC50 is > 25000 nM.

What about the IC50 [2, 9] of the same compound?
The IC50 was 180 nM.

Which solubility [4] does the source give for `COc1ccc(C2(O)OC(=O)C(c3ccc4c(c3)OCO4)=C2Cc2cc(OC)c(OC)c(OCCN(C)C)c2)cc1` (stereo not shown) [Example 11, 3-Benzo[1,3]dioxyl-5-yl-4-[3-(2-dimethylamino-ethoxy)-4,5-dimethoxy-benzyl]-5-hydroxy-5-(4-methoxy-phenyl)-5H-furan-2-one 2-hydroxyethanesulfonate] here?
The solubility was > 25 mg/mL.

What does the source list for `COc1ccc(C2(O)OC(=O)C(c3cc(OC)cc(OC)c3)=C2Cc2cc(OC)c(OC)c(OCCN(C)C)c2)cc1` (stereo not shown) [Example 16]?
IC50 [1, 8]: > 2500 nM; IC50 [2, 9]: 2 nM

Which results are given for `COc1ccc(C2(O)OC(=O)C(c3cc(OC)cc(OC)c3)=C2Cc2cc(OC)c(OC)c(OCCCN3CCN(C)CC3)c2)cc1` (stereo not shown) [Example 17, 4-{3,4-Dimethoxy-5-[3-(4-methyl-piperazzin-1-yl)-propoxy]-benzyl}-3-(3,5-dimethoxy-phenyl)-5-hydroxy-5-(4-methoxy-phenyl)-5-hydroxy-5-(4-methoxy-phenyl)-5H-furan-2-one]?
IC50 [1, 8]: > 2500 nM; IC50 [2, 9]: 12.5 nM

Which solubility [4] does the source give for `COc1ccc(C2(O)OC(=O)C(c3ccc4c(c3)OCO4)=C2Cc2cc(OC)c(OC)c(OCCCS(=O)(=O)O)c2)cc1` (stereo not shown) [Example 26] here?
Its solubility is > 80 mg/mL.

Which IC50 [1, 8] does the source give for `COc1cc(CC2=C(c3ccc4c(c3)OCO4)C(=O)OC2(O)c2ccc(OCCN3CCOCC3)cc2)cc(OC)c1OC` (stereo not shown) [Example 27, 3-Benzo[1,3]dioxol-5-yl-5-hydroxy-5-[4-(2-morpholin-4-ethoxy)-phenyl]-4-(3,4,5-trimethoxy-benzyl)-5H-furan-2-one] here?
Its IC50 is 3350 nM.

And the IC50 [2, 9]?
The IC50 was 14 nM.

Which IC50 [1, 8] does the source give for `COc1cc(CC2=C(c3ccc4c(c3)OCO4)C(=O)OC2(O)c2ccc(OCCN3CCOCC3)cc2)cc(OC)c1OC` (stereo not shown) [Example 28, 3-Benzo[1,3]dioxol-5-yl-5-hydroxy-5-[4-(2-morpholin-4-yl-ethoxy)-phenyl]-4-(3,4,5-trimethoxy-benzyl)-5H-furan-2-one 2-hydroxyethanesulfonate] here?
The IC50 was 4100 nM.

And the IC50 [2]?
Its IC50 is 12 nM.

For `COc1cc(CC2=C(c3ccc4c(c3)OCO4)C(=O)OC2(O)c2ccc(OCCCN(C)C)cc2)cc(OC)c1OC` (stereo not shown) [Example 29, 3-Benzo[1,3]dioxol-5-yl-5-[4-(3-dimethylamino-propoxy)-phenyl]-5-hydroxy-4-(3,4,5-trimethoxy-benzyl)-5H-furan-2-one], which IC50 [1, 8] is on record?
Its IC50 is 17000 nM.

And the IC50 [2, 9]?
Its IC50 is 40 nM.

For `COc1cc(CC2=C(c3ccc4c(c3)OCO4)C(=O)OC2(O)c2ccc(OCCCN(C)C)cc2)cc(OC)c1OC` (stereo not shown) [Example 30, 3-Benzo[1,3]dioxol-5-yl-5-[4-(3-dimethylamino-propoxy)-phenyl]-5-hydroxy-4-(3,4,5-trimethoxy-benzyl)-5H-furan-2-one 2-hydroxyethanesulfonate], which IC50 [1, 8] is on record?
Its IC50 is > 2500 nM.

And the IC50 [2, 9]?
Its IC50 is 180 nM.

Which IC50 [1, 8] does the source give for `CNc1cccc(CC2=C(c3ccc4c(c3)OCO4)C(=O)OC2(O)c2ccc(OC)cc2)c1` (stereo not shown) [Example 31, 3-Benzo[1,3]dioxol-5-yl-5-hydroxy-5-(4-methoxy-phenyl)-4-(3-methylamino-benzyl)-5H-furan-2-one] here?
Its IC50 is 2700 nM.

And the IC50 [2, 9]?
Its IC50 is 2 nM.

What does the source list for `COc1ccc(C2(O)OC(=O)C(c3ccc4c(c3)OCO4)=C2Cc2cccc(CN(C)C)c2)cc1` (stereo not shown) [Example 32]?
IC50 [1, 8]: 900 nM; IC50 [2, 9]: 4 nM

With `COc1ccc(C2(O)OC(=O)C(c3ccc4c(c3)OCO4)=C2Cc2cccc(CN(C)C)c2)cc1` (stereo not shown) [Example 33, 3-Benzo[1,3]dioxol-5-yl-4-(3-dimethylaminomethyl-benzyl)-5-hydroxy-5-(4-methoxy-phenyl)-5H-furan-2-one 2-hydroxyethanesulfonate] as the compound, how does the Kb ([3]; ET-1 stimulated vasoconstriction, rabbit femoral artery) read?
The Kb was 200 nM.

What about the IC50 [1, 8] of the same compound?
The IC50 was 470 nM.

What about the IC50 [2, 9] of the same compound?
The IC50 was 1.2 nM.

Which IC50 [1, 8] does the source give for `COc1ccc(C2(O)OC(=O)C(c3cc(OC)c4c(c3)OCO4)=C2Cc2cccc(CN(C)C)c2)cc1` (stereo not shown) [Example 34, 4-(3-Dimethylaminomethyl-benzyl)-5-hydroxy-3-(7-methoxy-benzo[1,3]dioxol-5-yl)-5-(4-methoxy-phenyl)-5H-furan-2-one] here?
Its IC50 is 110 nM.

What about the IC50 [2, 9] of the same compound?
The IC50 was 0.6 nM.

Which IC50 [1, 8] does the source give for `COc1ccc(C2(O)OC(=O)C(c3cc(OC)c4c(c3)OCO4)=C2Cc2cccc(CN(C)C)c2)cc1` (stereo not shown) [Example 35, 4-(3-Dimethylaminomethyl-benzyl)-5-hydroxy-3-(7-methoxy-benzo[1,3]dioxol-5-yl)-5-(4-methoxy-phenyl)-5H-furan-2-one 2-hydroxyethanesulfonate] here?
The IC50 was 210 nM.

And the IC50 [2, 9]?
Its IC50 is 1 nM.

For `COc1ccc(C2(O)OC(=O)C(c3ccc4c(c3)OCO4)=C2Cc2cc(OC)c(OC)c(OCCN3CCOCC3)c2)cc1` (stereo not shown) [Example 37, 3-Benzo[1,3]dioxol-5-yl-4-[3,4-dimethoxy-5-(2-morpholin-4-yl-ethoxy)-benzyl]-5-hydroxy-(4-methoxy-phenyl)-5-furan-2-one 2-hydroxyethanesulfonate], which solubility [4] is on record?
The solubility was > 25 mg/mL.

Which Kb [3] does the source give for `COc1ccc(C2(O)OC(=O)C(c3ccc4c(c3)OCO4)=C2Cc2cc(OC)c(OC)c(OC)c2)c(OCCCN(C)C)c1` (stereo not shown) [Example 38, 3Benzo[1,3]dioxol-5-yl-5-[2-(3-dimethylamino-propoxy)-4-methoxy-phenyl]-5-hydroxy-4-(3,4,5-trimethoxy-benzyl)-5H-furan-2-one] here?
Its Kb is 100 nM.

What about the IC50 [1, 8] of the same compound?
Its IC50 is 800 nM.

And the IC50 [2, 9]?
The IC50 was 1 nM.

Which results are given for `COc1ccc(C2(O)OC(=O)C(c3ccc4c(c3)OCO4)=C2Cc2cc(OC)c(OC)c(OC)c2)cc1` (stereo not shown) [PD 156707]?
volume of ischemic damage in the cerebral hemisphere [5]: significantly reduced; pulmonary vascular resistance and pulmonary arterial pressure [6]: provide protection in a rat hypoxia model of hypertension by lowering the increase in pulmonary vascular resistance and pulmonary arterial pressure

Which “reduction of ischemic brain injury” value [7] does the source give for `CCCOc1ccc2c(c1)[C@@H](c1ccc(OC)cc1OCCO)[C@H](C(=O)O)[C@H]2c1ccc2c(c1)OCO2` [SB 217242] here?
The value was “Reduction of ischemic brain injury in rats was also demonstrated”.

For `COc1ccc(C(=O)C(Cc2cccc(CN(C)C)c2)=C(C(=O)O)c2cc(OC)c3c(c2)OCO3)cc1` [sodium salt], which IC50 [1] is on record?
Its IC50 is 300 nM.

And the IC50 [2]?
Its IC50 is 2 nM.
